# Results published in ChEMBL document CHEMBL4814026, “Discovery of novel reversible monoacylglycerol lipase inhibitors via docking-based virtual screening” (Bioorg Med Chem Lett, 2021).
# Activity calls are given as the source filed them. The calls are words filed in the database; no cut-off is given here.
# How the values were obtained:
# Monoglyceride lipase [1] = molecular target: T1, Monoglyceride lipase (Rattus norvegicus, UniProt Q8R431); experiment: Inhibition of recombinant rat MAGL by LC-MS analysis
# T1 sequence (Q8R431 whole entry): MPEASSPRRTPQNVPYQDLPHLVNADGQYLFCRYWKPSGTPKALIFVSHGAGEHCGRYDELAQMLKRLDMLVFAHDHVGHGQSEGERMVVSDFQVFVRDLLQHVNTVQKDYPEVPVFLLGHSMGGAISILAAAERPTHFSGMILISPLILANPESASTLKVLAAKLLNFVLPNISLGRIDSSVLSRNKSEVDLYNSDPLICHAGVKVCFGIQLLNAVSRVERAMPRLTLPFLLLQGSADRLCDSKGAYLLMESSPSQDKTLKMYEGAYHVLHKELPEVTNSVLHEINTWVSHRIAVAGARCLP
# Monoglyceride lipase [2] = molecular target: T2, Monoglyceride lipase (Homo sapiens, UniProt Q99685); experiment: Inhibition of MAGL (unknown origin)
# T2 sequence (Q99685 whole entry): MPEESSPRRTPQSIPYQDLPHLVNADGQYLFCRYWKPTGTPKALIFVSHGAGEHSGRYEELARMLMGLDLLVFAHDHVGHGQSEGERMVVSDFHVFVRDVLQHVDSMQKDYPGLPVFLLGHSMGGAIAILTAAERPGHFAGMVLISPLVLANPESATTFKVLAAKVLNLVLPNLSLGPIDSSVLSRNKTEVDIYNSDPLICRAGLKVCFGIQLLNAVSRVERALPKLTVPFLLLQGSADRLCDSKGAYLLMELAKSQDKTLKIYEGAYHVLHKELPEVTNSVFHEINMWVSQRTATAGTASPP
# Monoglyceride lipase [3] = molecular target: T2, Monoglyceride lipase; experiment: Binding affinity to MAGL (unknown origin) by SPR analysis
# [4] = molecular target: T3, Monoglyceride lipase (Homo sapiens) (UniProt Q99685); experiment: Reversible inhibition of MAGL (unknown origin)
# T3 sequence (whole entry): T2 sequence (Q99685 whole entry)
# RAW264.7 [5] = experiment: Antiinflammatory activity in mouse RAW264.7 cells assessed as reduction in LPS-induced CCL-2 mRNA expression measured after 24 hrs by RT-PCR analysis; type: functional, cell-based; settings: dose 20-40 µM
# [6] = molecular target: T4, Monoglyceride lipase (Mus musculus) (UniProt O35678); experiment: Inhibition of MAGL in mouse RAW264.7 cells assessed as increase in 2-AG level at 30 uM; type: cell-based
# T4 sequence (whole entry): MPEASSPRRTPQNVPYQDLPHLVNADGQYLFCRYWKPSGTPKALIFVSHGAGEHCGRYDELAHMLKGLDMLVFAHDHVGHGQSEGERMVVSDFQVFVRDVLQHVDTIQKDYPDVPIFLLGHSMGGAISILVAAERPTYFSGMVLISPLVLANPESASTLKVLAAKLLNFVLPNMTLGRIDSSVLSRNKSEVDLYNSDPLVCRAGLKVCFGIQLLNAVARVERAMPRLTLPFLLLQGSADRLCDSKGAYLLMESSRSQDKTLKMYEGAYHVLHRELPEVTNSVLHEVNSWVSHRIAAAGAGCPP
# [7] = molecular target: T3, Monoglyceride lipase (Homo sapiens); experiment: Inhibition of MAGL (unknown origin) in presence of DTT
# RAW264.7 [8] = experiment: Antiinflammatory activity in mouse RAW264.7 cells assessed as reduction in LPS-induced IL-1beta mRNA expression measured after 24 hrs by RT-PCR analysis; type: functional, cell-based; settings: dose 20-40 µM
# RAW264.7 [9] = experiment: Antiinflammatory activity in mouse RAW264.7 cells assessed as reduction in LPS-induced IL-6 mRNA expression measured after 24 hrs by RT-PCR analysis; type: functional, cell-based; settings: dose 20-40 µM
smiles,measurement,setting,value
CC(C)=CCC[C@@H](C)[C@@H]1CC[C@]2(C)C3=C(CC[C@@]12C)[C@@]1(C)CC[C@H](O)C(C)(C)[C@@H]1CC3 [EUPHOL],IC50,Monoglyceride lipase [1],315 nM
O=C(c1ccc2nc(N3CCCCC3)sc2c1)N1CCN(c2ccccn2)CC1,IC50,Monoglyceride lipase [2],> 33300 nM
COc1ccc(N2CCN(C(=O)c3ccc4nc(N5CCC(C)CC5)sc4c3)CC2)cc1,Kd,Monoglyceride lipase [3],710 nM
same,IC50,Monoglyceride lipase [2],2840 nM
same,inhibition,[4],Active
same,Activity,RAW264.7 [5],Dose-Dependent Effect
same,inhibition,[6],Active
same,inhibition,[7],Active
same,Activity,RAW264.7 [8],Dose-Dependent Effect
same,Activity,RAW264.7 [9],Dose-Dependent Effect
Cc1ccc(Cl)cc1N1CCN(C(=O)c2ccc3nc(N4CCC(C)CC4)sc3c2)CC1,IC50,Monoglyceride lipase [2],5800 nM
COC(=O)[C@]1(C)CC[C@]2(C)CC[C@]3(C)C4=CC=C5C(=CC(=O)C(O)=C5C)[C@]4(C)CC[C@@]3(C)[C@@H]2C1 [PRISTIMERIN],IC50,Monoglyceride lipase [1],93 nM
COc1cc(N2CCN(C(=O)c3ccc4nc(N5CCC(C)CC5)sc4c3)CC2)cc(OC)c1OC,IC50,Monoglyceride lipase [2],> 33300 nM
CC1CCN(c2nc3ccc(C(=O)N4CCN(Cc5ccccc5)CC4)cc3s2)CC1,IC50,Monoglyceride lipase [2],2870 nM
COc1cccc(N2CCN(C(=O)c3ccc4nc(N5CCC(C)CC5)sc4c3)CC2)c1,IC50,Monoglyceride lipase [2],6580 nM
O=C(C1CCCN(c2nc3ncccc3s2)C1)N1CCN(Cc2ccc3c(c2)OCO3)CC1 (configuration not stated),IC50,Monoglyceride lipase [2],> 33300 nM
O=C(C1CCN(c2nc3ncccc3s2)CC1)N1CCN(Cc2ccc3c(c2)OCO3)CC1,IC50,Monoglyceride lipase [2],> 33300 nM
